Data on 3 molecules can be found in patent US20070020196A1, “Inhalant formulation containing sulfoalkyl ether cyclodextrin and corticosteroid prepared from a unit dose suspension” (priority 2003, published 2007).

Each structure is given as a SMILES string. ≈ marks a conversion by molar mass, not a printed value.

One data set can be described thus: physchem. As to conditions: thermodynamic from solid.
A short description of data set [1]: Molar ratio SAE-CD:corticosteroid at saturated solubility (phase solubility binding study). The class given is physicochemical.
A short description of data set [2]: Solubility of selected steroids enhanced by cyclodextrins (phase solubility). As to conditions: thermodynamic from solid, Solubility of steroid.
[3] abbreviates: aqueous with cosolvent or surfactant or cyclodextrin, [Steroid] solubility, (SBE)6.1 γ-CD (0.04 M).
[4] abbreviates: aqueous with cosolvent or surfactant or cyclodextrin, [Steroid] solubility, Captisol (0.04 M).
[5] abbreviates: water, [Steroid] Intrinsic Solubility (in H2O).

`C[C@]12C=CC(=O)C=C1CC[C@@H]1[C@@H]2C(=O)C[C@@]2(C)[C@H]1CC[C@]2(O)C(=O)CO` [Prednisone]: the solubility in the data set “physchem” (setting [3]) was 13100 µM (≈ 4710 µg/mL); in “physchem” (setting [4]), 18300 µM (≈ 6570 µg/mL); in “physchem” (setting [5]) it was 505 µM (≈ 181 µg/mL).
On to `CC1(C)O[C@@H]2C[C@H]3[C@@H]4C[C@H](F)C5=CC(=O)C=C[C@]5(C)[C@H]4[C@@H](O)C[C@]3(C)[C@]2(C(=O)CO)O1` [Flunisolide], for which the values for the solubility in “physchem” (setting [3]), in “physchem” (setting [4]) and in the data set “physchem” (setting [5]) were 4550 µM (≈ 1980 µg/mL), 2620 µM (≈ 1140 µg/mL) and 113 µM (≈ 49.1 µg/mL), respectively. Also, the figures for the “Approximate Molar Ratio at Saturated Solubility of Corticosteroid (SAE-CD: corticosteroid)” value in data set [1] (SAE-β-CD) and in data set [1] (SAE-γ-CD) were ~16 and ~9, respectively.
With `C[C@@H]1C[C@H]2[C@@H]3C[C@H](F)C4=CC(=O)C=C[C@]4(C)[C@@]3(F)[C@@H](O)C[C@]2(C)[C@@]1(O)C(=O)SCF` [Fluticasone, fluticasone], the “Approximate Molar Ratio at Saturated Solubility of Corticosteroid (SAE-CD: corticosteroid)” value in data set [1] (SAE-β-CD) is ~32. For the same molecule, the solubility in data set [2] (aqueous cyclodextrin solution, aqueous with cosolvent or surfactant or cyclodextrin, (SBE)2.4 β-CD 0.04 M) worked out at 128 µM; in data set [2] (aqueous cyclodextrin solution, aqueous with cosolvent or surfactant or cyclodextrin, (SBE)5.2 γ-CD 0.1 M), 14400 µM; in data set [2] (aqueous cyclodextrin solution, aqueous with cosolvent or surfactant or cyclodextrin, (SBE)6.1 γ-CD 0.04 M) it was 5760 µM; in data set [2] (aqueous cyclodextrin solution, aqueous with cosolvent or surfactant or cyclodextrin, (SBE)6.1 γ-CD 0.08 M), 9490 µM; in data set [2] (aqueous cyclodextrin solution, aqueous with cosolvent or surfactant or cyclodextrin, (SBE)6.7 β-CD 0.0465 M), 1260 µM; in data set [2] (aqueous cyclodextrin solution, aqueous with cosolvent or surfactant or cyclodextrin, (SBE)6.7 β-CD 0.0950 M), 2160 µM. In addition, the solubility in data set [2] (aqueous cyclodextrin solution, aqueous with cosolvent or surfactant or cyclodextrin, (SBE)9.7 γ-CD […]) amounted to 8950 µM; in data set [2] (aqueous cyclodextrin solution, aqueous with cosolvent or surfactant or cyclodextrin, (SPE)5.4 γ-CD 0.04 M), 7600 µM; in data set [2] (aqueous cyclodextrin solution, aqueous with cosolvent or surfactant or cyclodextrin, (SPE)5.4 γ-CD 0.08 M), 13900 µM; in data set [2] (aqueous cyclodextrin solution, aqueous with cosolvent or surfactant or cyclodextrin, (SPE)7 β-CD 0.04 M), 939 µM; in data set [2] (aqueous cyclodextrin solution, aqueous with cosolvent or surfactant or cyclodextrin, (SPE)7 β-CD 0.08 M), 1510 µM; in data set [2] (aqueous cyclodextrin solution, aqueous with cosolvent or surfactant or cyclodextrin, γ-CD 0.1 M), 822 µM. The solubility in data set [2] (water, H2O, no CD) came out at 1.6 µM.

A word on the solubility: it is how much of the substance goes into solution per volume.
